Columns and labels:
[1] = system: 3T3 fibroblasts cells (NIH 3T3 fibroblast cell line)
Description: Cytocompatibility was evaluated by culturing 3T3 fibroblasts cells (NIH 3T3 fibroblast cell line) in diacid- and/or polymer-containing medium at concentrations of 0.10 and 0.01 mg/mL Cell culture medium consisted of Dulbecco's modified Eagle's medium (DMEM), 10 vol. % fetal bovine serum (Atlanta Biologicals, Lawrenceville, Ga.), 1% 1-glutamate, and 1% penicillin/streptomycin. Fibroblasts were seeded at a density of 2,000 cells/well in 96 well plates containing 150 μL of culture medium. The positive control consisted of fibroblasts with cell culture media only and the negative control consisted of fibroblasts with cell culture media and 5% 200-proof ethanol (PHARMCO-AAPER). […] Cell viability was determined by using Calcein AM and ethidium homodimer-1 staining (Molecular Probes) according to the manufacturer's protocol and the results normalized to the positive control. […] Experiments were performed in quadruplicates.

[2] = 37° C., pH 7.4 buffer, HPLC
Description: The system was connected to a Dell computer running Empire software. Samples were filtered using 0.22 μm poly(vinylidine fluoride) syringe filters (Fisher). […] Mobile phase used was composed of 50 mM KH2PO4, 2.5 mM sodium dodecyl sulfate, 25% acetonitrile, 75% water at pH 3.
In vitro degradation studies. Diacid 3 (5.0 mg, triplicate) was placed into scintillation vials and 20.00 mL phosphate buffered saline (PBS) pH 7.4 added. Samples were incubated at 37° C. under constant shaking (60 rpm) in an Excella E25 Incubator Shaker (New Brunswick Scientific). PBS (1.00 mL) was removed at predetermined time points (2 h, 5 h, 10 h, and daily starting on day 1) and replaced with fresh PBS (1.00 mL). The pH was checked using an Accumet® Research AR15 pH meter (Fisher Scientific) and adjusted using 0.50 M NaOH when needed. Samples were immediately analyzed by HPLC using the conditions outlined above.
Samples were incubated at 37° C. under constant shaking (60 rpm) in an Excella E25 Incubator Shaker (New Brunswick Scientific). PBS (20.00 mL) was removed daily and replaced with fresh PBS. Samples were analyzed by HPLC.

Q: Which “cell viability vs positive control (FIG. 7A)” value ([1]; 0.10 mg/mL, 95% confidence level) does the source give for `CN1CC[C@]23c4c5ccc(OC(=O)CCCC(=O)O)c4O[C@H]2[C@@H](OC(=O)CCCC(=O)O)C=C[C@H]3[C@H]1C5` [Diacid 3] here?
A: no statistical differences

Q: What about the cytotoxicity towards fibroblasts ([1]; 0.10 and 0.01 mg/mL) of the same molecule?
A: non-cytotoxic

Q: And the “cell viability vs positive control (statistical analysis)” value ([1]; 0.10 and 0.01 mg/mL, 24, 48 and 72 h, 95% confidence level)?
A: no significant differences

Q: And the hydrolytic degradation pathway [2]?
A: hydrolyzes into a monoacid

Reference: patent publication US20140030341A1, “POLYMERS AND METHODS FOR THE TREATMENT OF PAIN” (RUTGERS, THE STATE UNIVERSITY OF NEW JERSEY, priority 2011, published 2014)
